Tested on: MV-4-11 cells
Test: Gene expression microarray analysis (Affymetrix PrimeView) and GSEA
Format: cell-based, human
Set-up: RFU PODN (11730768_x_at) / Fold change /veh PODN (11730768_x_at) / RFU LINC00158 (11744669_a_at) / Fold change /veh LINC00158 (11744669_a_at) / RFU DUSP10 (11751237_a_at) / Fold change /veh DUSP10 (11751237_a_at) / RFU ID3 (11757404_x_at) / Fold change /veh ID3 (11757404_x_at) / RFU PLEKHG5 (11737974_s_at) / Fold change /veh PLEKHG5 (11737974_s_at) / RFU LRRC4B (11730491_at) / Fold change /veh LRRC4B (11730491_at) / RFU GIMAP4 (11747438_a_at) / Fold change /veh GIMAP4 (11747438_a_at) / RFU KRT8 (11758183_x_at) / Fold change /veh KRT8 (11758183_x_at) / RFU CNN1 (11734310_a_at) / Fold change /veh CNN1 (11734310_a_at) / RFU VPS37D (11726825_at) / Fold change /veh VPS37D (11726825_at) / RFU C10orf10 (11716522_x_at) / Fold change /veh C10orf10 (11716522_x_at) / RFU KIR2DL2 /// KIR2DL4 /// KIR2DL5A /// KIR2DL5B /// KIR2DS1 /// KIR2DS2 /// KIR2DS3 /// KIR2DS4 /// KIR3DL3 /// KIR3DL3 /// KIR3DS1 (11738374_at) / Fold change /veh KIR2DL2 /// KIR2DL4 /// KIR2DL5A /// KIR2DL5B /// KIR2DS1 /// KIR2DS2 /// KIR2DS3 /// KIR2DS4 /// KIR3DL3 /// KIR3DL3 /// KIR3DS1 (11738374_at) / RFU C1QL1 (11718748_at) / Fold change /veh C1QL1 (11718748_at) / RFU TMPRSS4 (11747572_a_at) / Fold change /veh TMPRSS4 (11747572_a_at) / RFU HAMP (11756126_x_at) / Fold change /veh HAMP (11756126_x_at) / RFU RNFT2 (11725882_a_at) / Fold change /veh RNFT2 (11725882_a_at) / RFU NR4A2 (11747474_a_at) / Fold change /veh NR4A2 (11747474_a_at) / RFU ABCC12 (11746883_a_at) / Fold change /veh ABCC12 (11746883_a_at) / RFU TMEM136 (11760407_x_at) / Fold change /veh TMEM136 (11760407_x_at) / RFU CLDN22 /// WWC2 (11732394_at) / Fold change /veh CLDN22 /// WWC2 (11732394_at) / RFU HLA-DPB1 (11760878_x_at) / Fold change /veh HLA-DPB1 (11760878_x_at) / RFU SPINT1 (11716480_a_at) / Fold change /veh SPINT1 (11716480_a_at) / RFU GAP43 (11754022_s_at) / Fold change /veh GAP43 (11754022_s_at) / RFU A4GNT (11735810_at) / Fold change /veh A4GNT (11735810_at) / RFU PRB3 (11715151_x_at) / Fold change /veh PRB3 (11715151_x_at) / RFU TUBB4B (11761932_at) / Fold change /veh TUBB4B (11761932_at) / RFU CAPN14 (11732068_a_at) / Fold change /veh CAPN14 (11732068_a_at) / RFU TMCC2 (11721928_a_at) / Fold change /veh TMCC2 (11721928_a_at) / RFU IRGQ (11745062_a_at) / Fold change /veh IRGQ (11745062_a_at) / RFU FAM174B (11720279_a_at) / Fold change /veh FAM174B (11720279_a_at) / RFU TMPRSS4 (11748680_a_at) / Fold change /veh TMPRSS4 (11748680_a_at) / RFU FAM212B (11763350_a_at) / Fold change /veh FAM212B (11763350_a_at) / RFU PLEKHG5 (11743358_a_at) / Fold change /veh PLEKHG5 (11743358_a_at) / RFU ZSCAN30 (11745921_a_at) / Fold change /veh ZSCAN30 (11745921_a_at) / RFU CMKLR1 (11741424_a_at) / Fold change /veh CMKLR1 (11741424_a_at) / RFU LOC101060620 /// MAPK8IP1 (11723275_at) / Fold change /veh LOC101060620 /// MAPK8IP1 (11723275_at) / RFU SPTSSB (11747773_x_at) / Fold change /veh SPTSSB (11747773_x_at) / RFU PRSS12 (11739890_at) / Fold change /veh PRSS12 (11739890_at) / RFU BIN1 (11741810_x_at) / Fold change /veh BIN1 (11741810_x_at) / RFU WNT11 (11732464_a_at) / Fold change /veh WNT11 (11732464_a_at) / RFU C10orf10 (11716521_a_at) / Fold change /veh C10orf10 (11716521_a_at) / RFU C5orf56 (11738089_at) / Fold change /veh C5orf56 (11738089_at) / RFU CYB561 (11721691_x_at) / Fold change /veh CYB561 (11721691_x_at) / RFU ANKRD19P (11752326_a_at) / Fold change /veh ANKRD19P (11752326_a_at) / RFU OR2T12 /// OR2T33 /// OR2T8 (11738714_s_at) / Fold change /veh OR2T12 /// OR2T33 /// OR2T8 (11738714_s_at) / RFU VCAN (11748164_a_at) / Fold change /veh VCAN (11748164_a_at) / RFU JSRP1 (11732532_at) / Fold change /veh JSRP1 (11732532_at) / RFU KRTAP10-11 (11738290_x_at) / Fold change /veh KRTAP10-11 (11738290_x_at) / RFU MYO3A (11730013_a_at) / Fold change /veh MYO3A (11730013_a_at) / RFU EBF3 (11725865_a_at) / Fold change /veh EBF3 (11725865_a_at) / RFU CAMK2N1 (11719241_x_at) / Fold change /veh CAMK2N1 (11719241_x_at) / RFU C5orf56 (11738088_a_at) / Fold change /veh C5orf56 (11738088_a_at) / RFU OLFML3 (11715873_a_at) / Fold change /veh OLFML3 (11715873_a_at) / RFU LOC100653217 /// NTM (11731650_a_at) / Fold change /veh LOC100653217 /// NTM (11731650_a_at) / RFU MAPK11 (11762145_a_at) / Fold change /veh MAPK11 (11762145_a_at) / RFU FIZ1 (11724087_x_at) / Fold change /veh FIZ1 (11724087_x_at) / RFU OASL (11726364_x_at) / Fold change /veh OASL (11726364_x_at) / RFU SOX15 (11748057_x_at) / Fold change /veh SOX15 (11748057_x_at) / RFU CD79A (11719716_a_at) / Fold change /veh CD79A (11719716_a_at) / RFU HIST1H1D (11736915_at) / Fold change /veh HIST1H1D (11736915_at) / RFU CASKIN2 (11723855_a_at) / Fold change /veh CASKIN2 (11723855_a_at) / RFU LOC730098 (11760151_x_at) / Fold change /veh LOC730098 (11760151_x_at) / RFU OR4N2 (11742367_at) / Fold change /veh OR4N2 (11742367_at) / RFU PRRT2 (11749266_a_at) / Fold change /veh PRRT2 (11749266_a_at) / RFU SNX32 (11753110_a_at) / Fold change /veh SNX32 (11753110_a_at) / RFU CDHR5 (11726645_a_at) / Fold change /veh CDHR5 (11726645_a_at) / RFU RCAN1 (11760418_a_at) / Fold change /veh RCAN1 (11760418_a_at) / RFU FAM167A (11723789_a_at) / Fold change /veh FAM167A (11723789_a_at) / RFU FAM26E (11764081_at) / Fold change /veh FAM26E (11764081_at) / RFU ISYNA1 (11749810_s_at) / Fold change /veh ISYNA1 (11749810_s_at) / RFU ACY1 (11761880_at) / Fold change /veh ACY1 (11761880_at) / RFU 11764098_at / Fold change /veh 11764098_at / RFU SAMD14 (11745864_x_at) / Fold change /veh SAMD14 (11745864_x_at) / RFU NPB (11741838_a_at) / Fold change /veh NPB (11741838_a_at) / RFU TMPRSS6 (11731388_a_at) / Fold change /veh TMPRSS6 (11731388_a_at) / RFU KRTAP10-2 (11738614_at) / Fold change /veh KRTAP10-2 (11738614_at) / RFU ARHGAP8 /// PRR5-ARHGAP8 (11727945_x_at) / Fold change /veh ARHGAP8 /// PRR5-ARHGAP8 (11727945_x_at) / RFU KRTAP5-7 /// NADSYN1 (11734609_at) / Fold change /veh KRTAP5-7 /// NADSYN1 (11734609_at) / RFU RASL12 (11751679_a_at) / Fold change /veh RASL12 (11751679_a_at) / RFU CDKN2B (11736163_a_at) / Fold change /veh CDKN2B (11736163_a_at) / RFU PRF1 (11729649_at) / Fold change /veh PRF1 (11729649_at) / RFU, ZNF638 /// ZNF638-IT1 / Fold change vs veh, ZNF638 /// ZNF638-IT1 / RFU, PANK3 / Fold change vs veh, PANK3 / RFU, SH3YL1 / Fold change vs veh, SH3YL1 / RFU, ZEB2 / Fold change vs veh, ZEB2 / RFU, NRIP1 / Fold change vs veh, NRIP1 / RFU, PTTG1IP / Fold change vs veh, PTTG1IP / RFU, CAPN2 / Fold change vs veh, CAPN2 / RFU, MED14 / Fold change vs veh, MED14 / RFU, SNORA58 / Fold change vs veh, SNORA58 / RFU, C1orf63 / Fold change vs veh, C1orf63 / RFU, LRRFIP1 / Fold change vs veh, LRRFIP1 / RFU, NDUFAF7 / Fold change vs veh, NDUFAF7 / RFU, SLC12A2 / Fold change vs veh, SLC12A2 / RFU, IBTK / Fold change vs veh, IBTK / RFU, ESF1 / Fold change vs veh, ESF1 / Fold change vs veh, TMEM50B / RFU, TAOK1 / Fold change vs veh, TAOK1 / RFU, ACBD3 / Fold change vs veh, ACBD3 / RFU, TMA16 / Fold change vs veh, TMA16 / RFU, RWDD3 / Fold change vs veh, RWDD3 / RFU, BCAT1 / Fold change vs veh, BCAT1 / RFU, EDEM3 / Fold change vs veh, EDEM3 / RFU, TMEM33 / Fold change vs veh, TMEM33 / RFU, WDR75 / Fold change vs veh, WDR75 / RFU, AHCTF1 / Fold change vs veh, AHCTF1 / RFU, TFRC / Fold change vs veh, TFRC / RFU, ZDHHC17 / Fold change vs veh, ZDHHC17 / RFU, NOM1 / Fold change vs veh, NOM1 / RFU, ARL8B / Fold change vs veh, ARL8B / RFU, ZBTB11 / Fold change vs veh, ZBTB11 / RFU, TAMM41 / Fold change vs veh, TAMM41 / RFU, KIAA1704 /// LOC100996395 / Fold change vs veh, KIAA1704 /// LOC100996395 / RFU, ING1 / Fold change vs veh, ING1 / RFU, TRMT61B / Fold change vs veh, TRMT61B / RFU, FUBP3 / Fold change vs veh, FUBP3 / RFU, TP53 / Fold change vs veh, TP53 / RFU, TNKS2 / Fold change vs veh, TNKS2 / RFU, ZFP14 / Fold change vs veh, ZFP14 / RFU, ACTR2 / Fold change vs veh, ACTR2 / RFU, PPP3R1 / Fold change vs veh, PPP3R1 / RFU, PIK3R1 / Fold change vs veh, PIK3R1 / RFU, HNRNPA1 / Fold change vs veh, HNRNPA1 / RFU, RNF170 / Fold change vs veh, RNF170 / RFU, ZNF28 / Fold change vs veh, ZNF28 / RFU, RNGTT / Fold change vs veh, RNGTT / RFU, OGT / Fold change vs veh, OGT / RFU, BRD1 / Fold change vs veh, BRD1 / RFU, MARS / Fold change vs veh, MARS / RFU, ZNF655 / Fold change vs veh, ZNF655 / RFU, FAHD1 / Fold change vs veh, FAHD1 / RFU, BDP1 / Fold change vs veh, BDP1 / RFU, LRRCC1 / Fold change vs veh, LRRCC1 / RFU, ARID1A / Fold change vs veh, ARID1A / RFU, ZNF146 / Fold change vs veh, ZNF146 / RFU, ZNF330 / Fold change vs veh, ZNF330 / RFU, GPN3 / Fold change vs veh, GPN3 / RFU, C9orf123 / Fold change vs veh, C9orf123 / RFU, N4BP2L2 / Fold change vs veh, N4BP2L2 / RFU, ARFIP1 / Fold change vs veh, ARFIP1 / RFU, FAM179B / Fold change vs veh, FAM179B / RFU, BCL10 / Fold change vs veh, BCL10 / RFU, UHRF1BP1L / Fold change vs veh, UHRF1BP1L / RFU, BET1 / Fold change vs veh, BET1 / RFU, CNOT2 / Fold change vs veh, CNOT2 / RFU, ZNF268 / Fold change vs veh, ZNF268 / Fold change vs veh, ZNF507 / RFU, DGCR2 / Fold change vs veh, DGCR2 / RFU, WDSUB1 / Fold change vs veh, WDSUB1 / Fold change vs veh, HSP90B1 /// MIR3652 / RFU, ADSS / Fold change vs veh, ADSS / RFU, GK / Fold change vs veh, GK / RFU, ZNF148 / Fold change vs veh, ZNF148 / RFU, TAF9 / Fold change vs veh, TAF9 / RFU, SLC1A5 / Fold change vs veh, SLC1A5 / RFU, SLMO2 / Fold change vs veh, SLMO2 / RFU, ABCC4 / Fold change vs veh, ABCC4 / RFU, LOC101060439 /// RAP1B / Fold change vs veh, LOC101060439 /// RAP1B / RFU, RFX7 / Fold change vs veh, RFX7 / RFU, GTPBP10 / Fold change vs veh, GTPBP10 / RFU, CNEP1R1 / Fold change vs veh, CNEP1R1 / RFU, BIVM-ERCC5 /// ERCC5 / Fold change vs veh, BIVM-ERCC5 /// ERCC5 / RFU, ILF3 / Fold change vs veh, ILF3 / RFU 11762660_at / Fold change /veh 11762660_at / RFU VCAN (11757783_s_at) / Fold change /veh VCAN (11757783_s_at) / RFU DDX43 (11728927_at) / Fold change /veh DDX43 (11728927_at) / RFU KRT8 (11758188_x_at) / Fold change /veh KRT8 (11758188_x_at) / RFU NKD1 (11759106_at) / Fold change /veh NKD1 (11759106_at) / RFU SRD5A1 (11742802_a_at) / Fold change /veh SRD5A1 (11742802_a_at) / RFU TPSAB1 /// TPSB2 (11721975_s_at) / Fold change /veh TPSAB1 /// TPSB2 (11721975_s_at) / RFU GSTM3 (11746129_a_at) / Fold change /veh GSTM3 (11746129_a_at) / RFU IL23R (11737362_x_at) / Fold change /veh IL23R (11737362_x_at) / RFU TMEM51 (11727254_a_at) / Fold change /veh TMEM51 (11727254_a_at) / RFU PIWIL2 (11732686_x_at) / Fold change /veh PIWIL2 (11732686_x_at) / RFU ORM1 (11744905_x_at) / Fold change /veh ORM1 (11744905_x_at) / RFU CCDC152 (11743942_at) / Fold change /veh CCDC152 (11743942_at) / RFU ECM1 (11717891_a_at) / Fold change /veh ECM1 (11717891_a_at) / RFU IL23R (11748794_a_at) / Fold change /veh IL23R (11748794_a_at) / RFU TNFAIP8L3 (11732012_x_at) / Fold change /veh TNFAIP8L3 (11732012_x_at) / RFU MBOAT4 (11741988_at) / Fold change /veh MBOAT4 (11741988_at) / RFU 11764193_at / Fold change /veh 11764193_at / RFU TMEM53 (11763286_at) / Fold change /veh TMEM53 (11763286_at) / RFU MAGEB2 (11727129_at) / Fold change /veh MAGEB2 (11727129_at) / RFU TMEM200A (11744735_a_at) / Fold change /veh TMEM200A (11744735_a_at) / RFU CCDC152 (11751479_a_at) / Fold change /veh CCDC152 (11751479_a_at) / RFU FAM211A (11726209_a_at) / Fold change /veh FAM211A (11726209_a_at) / RFU RGS16 (11746705_a_at) / Fold change /veh RGS16 (11746705_a_at) / RFU VCAN (11755009_s_at) / Fold change /veh VCAN (11755009_s_at) / RFU RHOB (11743442_s_at) / Fold change /veh RHOB (11743442_s_at) / RFU RGS16 (11720943_a_at) / Fold change /veh RGS16 (11720943_a_at) / RFU RGS16 (11720944_at) / Fold change /veh RGS16 (11720944_at) / RFU, VPS4B / Fold change vs veh, VPS4B / RFU, CREB1 / Fold change vs veh, CREB1 / RFU, DNAJC13 / Fold change vs veh, DNAJC13 / RFU, GNAQ / Fold change vs veh, GNAQ / RFU, CDK5R1 / Fold change vs veh, CDK5R1 / RFU, ZRANB3 / Fold change vs veh, ZRANB3 / RFU, CUL4A / Fold change vs veh, CUL4A / RFU, CCNY / Fold change vs veh, CCNY / RFU, UFL1 / Fold change vs veh, UFL1 / RFU, COG3 / Fold change vs veh, COG3 / RFU, DIAPH2 / Fold change vs veh, DIAPH2 / RFU, SKA2 / Fold change vs veh, SKA2 / RFU, AFF3 / Fold change vs veh, AFF3 / RFU, LMF1 / Fold change vs veh, LMF1 / RFU, IPO11 / Fold change vs veh, IPO11 / RFU, DFFB / Fold change vs veh, DFFB / RFU, FOXP1 / Fold change vs veh, FOXP1 / RFU, CARD8 / Fold change vs veh, CARD8 / RFU, STRN3 / Fold change vs veh, STRN3 / RFU, ADK / Fold change vs veh, ADK / RFU, RASSF2 / Fold change vs veh, RASSF2 / RFU, WIPF1 / Fold change vs veh, WIPF1 / RFU, LARP1B / Fold change vs veh, LARP1B / RFU, RASA1 / Fold change vs veh, RASA1 / RFU, RB1 / Fold change vs veh, RB1 / RFU, PPFIA1 / Fold change vs veh, PPFIA1 / RFU, MAT2A / Fold change vs veh, MAT2A / RFU, CCT5 / Fold change vs veh, CCT5 / RFU, WDR92 / Fold change vs veh, WDR92 / RFU, CUX1 / Fold change vs veh, CUX1 / RFU, TTC7A / Fold change vs veh, TTC7A / RFU, TMEM135 / Fold change vs veh, TMEM135 / RFU, DEPTOR / Fold change vs veh, DEPTOR / RFU, CPM / Fold change vs veh, CPM / RFU, DNAJB6 / Fold change vs veh, DNAJB6 / RFU, CACNA2D3 / Fold change vs veh, CACNA2D3 / RFU, DTX4 / Fold change vs veh, DTX4 / RFU, TFCP2 / Fold change vs veh, TFCP2 / RFU, GMCL1 /// GMCL1P1 / Fold change vs veh, GMCL1 /// GMCL1P1 / RFU, AEBP2 / Fold change vs veh, AEBP2 / RFU, SNHG1 /// SNORD22 /// SNORD25 /// SNORD26 /// SNORD27 /// SNORD28 /// SNORD29 /// SNORD31 / Fold change vs veh, SNHG1 /// SNORD22 /// SNORD25 /// SNORD26 /// SNORD27 /// SNORD28 /// SNORD29 /// SNORD31 / Fold change (Aza/veh), C12orf56 (ProbeSet 11735607_a_at) / Fold change (ACY-1035/veh), C12orf56 (ProbeSet 11735607_a_at) / Fold change (Aza/veh), FGFR1OP (ProbeSet 11751329_s_at) / Fold change (ACY-1035/veh), FGFR1OP (ProbeSet 11751329_s_at) / Fold change (Aza/veh), VPS36 (ProbeSet 11739960_a_at) / Fold change (ACY-1035/veh), VPS36 (ProbeSet 11739960_a_at) / RFU SYPL1 (11715823_x_at) / Fold change /veh SYPL1 (11715823_x_at) / RFU IGFBP7 (11715501_s_at) / Fold change /veh IGFBP7 (11715501_s_at) / RFU REEP3 (11722064_at) / Fold change /veh REEP3 (11722064_at) / RFU IGLL1 (11728026_x_at) / Fold change /veh IGLL1 (11728026_x_at): dose or concentration left out as unconfirmed
Details: ProbeSet 11723930_at; LIST D

**Q.** With `Nc1ncn([C@@H]2O[C@H](CO)[C@@H](O)[C@H]2O)c(=O)n1` [azacitidine] as the compound, how does the “RFU, CCT5” value read?
**A.** Its value is 106.24 RFU.

Reference: PMC5218480 (PLoS ONE, 2017)
